Holding throughout (type): physicochemical
The nature of data set [1]: Dynamic water vapor sorption (DVS) analysis. The conditions noted are these: for Hygroscopicity: DVS; for Conversion into hydrated form: high relative humidity up to 95%. As for the experimental part:
The dynamic vapor sorption (DVS) analysis (gas water sorption) is performed on a DVS-Intrinsic incubator (SMS Ltd), equipped with DVS-Intrinsic Control Software 1.0.
The sample, placed in an aluminum basket holder, is submitted to a full-cycle analysis (sorption followed by desorption cycle) under the conditions described in Table 9.
The sample is first pre-dried under a stream of dry air until a stabilized sample mass is observed. Then, the relative humidity is increased by 5% increments. At each step, the sample mass is allowed to increase until equilibrium is reached (according to a given dm/dt target), and then a new relative humidity rise occurs. Relative humidity is ramped up to 95%. After equilibration at this point, desorption begins in a similar stepwise manner, with sample mass decrease again allowed to stabilize after each incremental humidity decrease.
With both segments of the above described method, the sample mass recording allows describing of the whole vapor water sorption/desorption behavior versus relative humidity.

Data set [2] can be described thus: Physical stability of bulk powder under temperature and humidity stress (XRPD, DSC, TGA). Conditions: for Physical stability as a bulk powder: at least 1 month at +40° C./75% HR and at +60° C. As for the experimental part:
(§1) The chemical and physical accelerated stability of crystalline form I (see example II) is studied in order to anticipate potential stability issues upon storage or ageing.
(§2) Crystalline form I powder is stored for 1 month at +40° C./75% RH and is also stored for 1 month at +60° C. (with % RH<10%).
The physical stability is also assessed by XRPD, DSC and TGA analyses by comparing the XRPD and thermal profiles of stressed samples to those of a non-stressed sample. For that purpose, one more sample is stored in each condition (respectively +40° C./75% RH and +60° C.).

Data set [3] can be described thus: Chemical stability of bulk powder under temperature and humidity stress (HPLC). The conditions noted are these: for Chemical stability as a bulk powder: at least 1 month at +40° C./75% RH and at +60° C.; for % of unchanged compound left (HPLC-UV at 323 nm): bulk powder, versus standard solutions. As for the experimental part: as §1, §2
The chemical stability is then assessed by chromatography by external standardization versus a freshly prepared (non-stressed crystalline form I) standard solution. For that purpose, three samples (exactly weighted) are stored for each condition.

Data set [4] can be described thus: Visual (apparent) solubility assessment in re-crystallization solvents. The conditions noted are these: for solubility: 20 °C, organic solvent or mixture, thermodynamic from solid, read-out: Estimated solubility. As to the method:
Prior to launching the slurry experiments, an “apparent solubility” is determined in all ageing media. To do so, to accurately weighed small amounts of 2-(4-chlorobenzylamino)-4-(4-tert-butylaminopiperidin-1-yl)-quinoline, aliquots of each solvent are successively added until complete dissolution is observed. The corresponding solubility S is then estimated.

Data set [5] is described as follows: Thermogravimetric analysis (TGA), thermal decomposition. As to the method:
Thermogravimetric analysis is performed on a TA Instruments TGA Hi-Res 2950 apparatus equipped with an evolved gas analysis furnace. A ThermoNicolet Nexus FTIR bench, equipped with FTIR cell gas analysis, is coupled to TGA apparatus via a transfer line.
A sample is placed in an opened aluminum basket and analyzed according to conditions described in Table 6.

Setting [6] is: 1 month +40° C./75% RH and +60° C.

SMILES strings stand for the structures. Read-outs that look alike come from different tables or passages of the source.

For `CC(C)(C)NC1CCN(c2cc(NCc3ccc(Cl)cc3)nc3ccccc23)CC1` [2-(4-chlorobenzylamino)-4-(4-tert-butylaminopiperidin-1-yl)-] [2-(4-chlorobenzylamino)-4-(4-tert-butylaminopiperidin-1-yl)-quinoline], the Hygroscopicity result in data set [1] (+25° C.) is reported as “not hygroscopic at all”. The “Conversion into hydrated form” value in data set [1] was “does not convert into any hydrated form”. Further, the “Physical stability as a bulk powder” value in data set [2] is “chemically and physically stable”. The “Chemical stability as a bulk powder” value in data set [3] is “chemically and physically stable”. Also, the “Solubility (grade in words)” value is reported as “Medium” in data set [4] (Acetone, 20-25° C.); “Medium” in data set [4] (EtAc, 20-25° C.); “Medium” in data set [4] (EtOH, 20-25° C.); “Low” in data set [4] (IPA, 20-25° C.); “Medium” in data set [4] (IPAC, 20-25° C.); “Low” in data set [4] (MEK, 20-25° C.). For the same molecule, the “Solubility (grade in words)” value in data set [4] (Propanol-1, 20-25° C.) is “Medium”.
In the case of `CC(C)(C)NC1CCN(c2cc(NCc3ccc(Cl)cc3)nc3ccccc23)CC1` [2-(4-chlorobenzylamino)-4-(4-tert-butylaminopiperidin-1-yl)-quinoline], the solubility was more than 16 mg/mL in data set [4] (Acetone, visual, 20-25° C.); more than 17.1 mg/mL in data set [4] (EtAc, visual, 20-25° C.); more than 9.8 mg/mL in data set [4] (EtOH, visual, 20-25° C.); more than 2.6 mg/mL in data set [4] (IPA, visual, 20-25° C.); more than 15.2 mg/mL in data set [4] (IPAC, visual, 20-25° C.); more than 2.4 mg/mL in data set [4] (MEK, visual, 20-25° C.). The solubility in data set [4] (Propanol-1, visual, 20-25° C.) was more than 15.1 mg/mL.
Turning to `CC(C)(C)NC1CCN(c2cc(NCc3ccc(Cl)cc3)nc3ccccc23)CC1` [Crystalline Form I, 2-(4-chlorobenzylamino)-4-(4-tert-butylaminopiperidin-1-yl)-quinoline], the “Sample mass variation upon sorption” value in data set [1] (+25° C., 0% to 10% RH) is “no significant mass variation”. Further, the Hygroscopicity result in data set [1] (+25° C.) is “non-hygroscopic at all”. For the same molecule, the “Final sample mass lower than starting mass after desorption” value in data set [1] (+25° C., back to 0% RH, cycle 1, versus mass after pre-drying) is recorded as 0.09%. Moreover, the “Hysteresis on loss of adsorbed water (desorption)” value in data set [1] (+25° C., between 95% and 65% RH) is “without hysteresis”. Besides, the “Mass loss during preliminary drying phase” value in data set [1] (+25° C./0% RH, before sorption) was determined as 0.12%. In data set [1] (+25° C./60% RH, sorption cycle 1), this molecule yielded a Water uptake of 0.09%. This molecule also yielded a Total water uptake in data set [1] (+25° C./95% RH, sorption cycle 1) of 0.29%. Further, the “Conversion into hydrated form” value in data set [1] is on record as “does not convert into any hydrated form”. Besides, in data set [2] (1 month +40° C./75% HR), the XRPD results is listed as “Diffractogram comparable to the initial”. For the same molecule, in data set [2] (1 month +40° C./75% RH), the “TOnset of main thermal decomposition (TGA)” value (“TOnset” below) was “+333 °C”. In data set [2] (setting [6]), the “TGA difference between stressed samples and initial physical form” value is “No difference”; the “XRPD pattern difference between stressed samples and initial physical form” value is “No XRPD pattern difference”. For the same molecule, in data set [2] (1 month +60° C.), the “TOnset” value is “+334 °C” and the XRPD results is listed as “Diffractogram comparable to the initial”. Further, the “Physical stability as a bulk powder” value in data set [2] is “physically stable”. The “DSC profile difference between stressed samples and initial physical form” value in data set [2] (stored at +40° C./75% RH and at +60° C.) is “No DSC profile difference”. Also, in data set [5] (non-stressed sample (initial analysis)), the “TOnset” value is “+333 °C”. In data set [5] (non-stressed sample, upon heating), the “Mass loss before the main thermal decomposition (TGA)” value was “no mass loss is detected”. In data set [3] (1 month +40° C./75% RH), the “% purity at 323 nm after stress” value is reported as “(% purity = 98.7% at 323 nm)”; the “Impurity profile compared to the standard profile (HPLC-UV at 323 nm, 252 nm and 203 nm)” value is given as “No additional impurity”; the “% of unchanged compound left (HPLC-UV at 323 nm)” value stood at 99.7%. Also, in data set [3] (1 month +60° C.), the “% purity at 323 nm after stress” value is reported as “(% purity = 98.8% at 323 nm)”; the “Impurity profile compared to the standard profile (HPLC-UV at 323 nm, 252 nm and 203 nm)” value is given as “No additional impurity”; the “% of unchanged compound left (HPLC-UV at 323 nm)” value stood at 100.5%. In addition, the “Chemical stability as a bulk powder” value in data set [3] is reported as “chemically stable”.

In general, solubility refers to the dissolved amount per volume that the medium holds.

The values are drawn from patent US20250074885A1, “CRYSTALLINE FREEBASE FORM OF 2-(4-CHLOROBENZYLAMINO)-4-(4-TERT-BUTYLAMINOPIPERIDIN-1-YL)-QUINOLINE AND USES THEREOF” (Genoscience Pharma, priority 2023, published 2025).
